Measurements as given in US20200352976A1, “HYPOMETHYLATING AGENTS FOR USE IN TREATMENT OF CANCER” (Otsuka Pharmaceutical Co., Ltd, priority 2019, published 2020).

Assay: Phase 2 study in relapsed/refractory AML: safety
Set-up: species or system human
Settings: in vivo
Method: A Phase 2 study of Compound I-1 using different regimens and doses (randomized 5-day regimen cohorts of 60 mg/m^2/d vs 90 mg/m^2/d SC) and a cohort of 10-day regimen in the first 1-4 cycles at 60 mg/m^2/d followed by subsequent cycles of 5-day regimen) was conducted as described above. Response and duration of response were assessed using IWG 2003 criteria: Complete Response (CR), CR with incomplete platelet recovery (CRp), and CR with incomplete count recovery (CRi). CR+CRp+CRi was defined as composite CR (CRc). Overall survival (OS) was assessed using the Kaplan-Meier (KM) method. Response status for each dose/regimen cohort and the overall treated population were assessed with analyses of duration of response and long-term survival.

Nc1ncn([C@H]2CC(OP(=O)(O)OC[C@H]3O[C@@H](n4cnc5c(=O)[nH]c(N)nc54)CC3O)[C@@H](CO)O2)c(=O)n1 (some centres unmarked) [Compound I-1]
Grade 3 or higher AEs related to the drug: 42%
Related serious AEs leading to death: no related serious AEs leading to death
